Values quoted from earlier work, collected in US20220331289A1, “Pharmaceutical Composition Comprising an Artemisinin Derivative for Nasal or Pulmonary Delivery” (Cipla Limited, priority 2014, published 2022).

Conditions: oil-based intramuscular injection formulation

absorption: slowly and erratically absorbed
SMILES: CO[C@H]1O[C@@H]2O[C@@]3(C)CC[C@H]4[C@H](C)CC[C@@H]([C@H]1C)[C@@]24OO3 [artemether]
